1 molecule from patent US11426473B2, “Nitrogen-containing compound or salt thereof, or metal complex thereof” (FUJIFILM Corporation, priority 2013, dated 2022) can be followed below.

The subject of experiment [1] is U87MG cells subcutaneous tumor. In words: Treatment experiment of subcutaneously U87MG-transplanted model using [90Y]-(A8). In kind it is in vivo, mouse. The note with it: 1 dose; for Rate of inhibition: 12 days after administration, above 100% indicated as 100%; for Tumor volume 12 days after administration / Tumor volume At start of administration: n 10, Mean + SD; for Tumor volume At start of administration: baseline; for The number of individuals having tumor regression: of n 10. As to the method:
(§1) U87MG cells were subcutaneously transplanted at 1×10^7 cells/mouse to the right flank of Balb/c Slc-nu/nu (SLC Japan, Inc., male, 6 weeks old). After 2 weeks, mice whose tumors became 100 to 500 mm^3 were grouped. Phosphate-buffered saline (PBS) or the radiolabeled compound [90Y]-(P2) was administered to the tail veins of the mice, and their tumor volumes were measured. When the tumor volumes of the mice in the PBS group exceeded 2,000 mm^3, which is a humanistic endpoint, the antitumor effect was evaluated. The evaluation values were the rate of inhibition of tumor growth ((1−(Average tumor volume of the compound administration group−Average tumor volume of the compound administration group before administration)/(Average tumor volume of the PBS group−Average tumor volume of the PBS group before administration))×100 (provided that the rate of inhibition exceeding 100% was indicated as 100%)) and the number of individuals having a tumor volume equal to or smaller than that at the start of the experiment (the number of individuals having tumor regression).
U87MG cells were subcutaneously transplanted at 1×10^7 cells/mouse to the right flank of Balb/cAJcl-nu/nu (CLEA Japan, Inc., male, 6 weeks old). After 2 weeks, mice whose tumors became 100 to 500 mm^3 were grouped. Phosphate-buffered saline (PBS) or the radiolabeled compound [^90Y]-(A8) was administered to the tail veins of the mice, and their tumor volumes were measured. The evaluation values were calculated in the same way as in Test Example 8 to evaluate the antitumor effect.

For experiment [2], the system named is T98G cell (human glioblastoma) subcutaneous tumor. In words: Treatment experiment of subcutaneously T98G-transplanted model using [90Y]-(A8). Format: in vivo, mouse. The note with it: Dose 11.1 MBa, 1 dose. As to the method:
as §1
A mixture of a T98G cell suspension (human glioblastoma, 1×10^7 cells) and Matrigel (Becton, Dickinson and Company) in equal amounts was subcutaneously transplanted to the right flank of Balb/cAJcl-nu/nu (CLEA Japan, Inc., female, 6 weeks old). After 90 days, the mice were grouped when their tumors BECAME 100 to 400 mm^3. Phosphate-buffered saline (PBS) or the radiolabeled compound [^90Y]-(A8) was administered to the tail veins of the mice, and their tumor volumes were measured. The evaluation values were calculated in the same way as in Test Example 8 to evaluate the antitumor effect.

For `Cc1cc(OCCCC(=O)NCCNC(=O)C(CS(=O)(=O)O)NC(=O)C(CS(=O)(=O)O)NC(=O)CN2CCN(CC(=O)[O-])CCN(CC(=O)[O-])CCN(CC(=O)[O-])CC2)cc(C)c1S(=O)(=O)NC(CNC(=O)c1ccc(CCc2ccc3c(n2)NCCC3)cc1)C(=O)O.[90Y+3]` (stereo not shown) [[^90Y]-(A8)], the Rate of inhibition in experiment [1] (Dose 5.55 MBa) worked out at 69%; in experiment [1] (Dose 11.1 MBa) it was 100%; in experiment [1] (Dose 14.8 MBa), 100%; in experiment [2] (22 days after administration, above 100% indicated as 100%), 100%. Also, the “Tumor volume 12 days after administration” value in experiment [1] (Dose 5.55 MBa) is 759 ± 344 mm^3; in experiment [1] (Dose 11.1 MBa), 199 ± 88 mm^3; in experiment [1] (Dose 14.8 MBa), 251 ± 112 mm^3. For the same molecule, the “Tumor volume At start of administration” value in experiment [1] (Dose 5.55 MBa) came out at 239 ± 89 mm^3; in experiment [1] (Dose 11.1 MBa) it was 243 ± 101 mm^3; in experiment [1] (Dose 14.8 MBa) it was 251 ± 110 mm^3; in experiment [2] (n 8, Mean ± SD, baseline) it was 201 ± 75 mm^3. For the same molecule, the “The number of individuals having tumor regression” value was determined as 0 in experiment [1] (Dose 5.55 MBa), 7 in experiment [1] (Dose 11.1 MBa), 6 in experiment [1] (Dose 14.8 MBa) and 6 in experiment [2] (of n 8). The “Tumor volume 22 days after administration” value in experiment [2] (n 8, Mean ± SD) turned out to be 123 ± 60 mm^3.
